According to ChEMBL document CHEMBL1137799, “Bisbenzylisoquinoline alkaloids” (J Nat Prod, 1991):
Values after ≈ are worked out from the molar mass of the structure shown.

Experiments:
Plasmodium falciparum = assay: Antimalarial activity against Plasmodium falciparum; type: functional, organism-based
Homo sapiens = assay: Increase in N-methyl-curine-induced neuromuscular blocking in patient during endotracheal intubation administered through inhalation; type: functional, organism-based
[1] = Inhibition of formyl-methionyl-leucyl-phenylalanine induced superoxide generation in PMNC; type: functional
[2] = biological target: Muscarinic acetylcholine receptor; assay: Displacement of [3H]QNB from rat brain muscarinic receptor
[3] = Inhibition of calmodulin-stimulated Ca2+/Mg2+ ATPase activity in human erythrocyte membrane; type: cell membranes
[4] = biological target: Dual specificity calcium/calmodulin-dependent 3',5'-cyclic nucleotide phosphodiesterase 1A (Homo sapiens, UniProt P54750); assay: Inhibition of calmodulin-dependent phosphodiesterase
[5] = Toxicity in ip dosed rat; type: organism-based; conditions: in vivo
[6] = Inhibition of phorbol myristate acetate-induced superoxide anion production in mouse peritoneal exudate cells at 5 ug/ml; type: functional
Mus musculus = species on record: Mus musculus; assay: Inhibition of 12-O-tetradecanoylphorbol-13-acetate-induced carcinogenic activity in mouse ear at 2 mg, applied locally; type: functional
[7] = Inhibition of phorbol myristate acetate-induced superoxide anion production in mouse peritoneal exudate cells at 50 ug/ml; type: functional
[8] = Protein binding in Wistar rat serum at 5 mg/kg, iv and po; type: ADME, organism-based; design: dose 5 mg/kg, route oral; conditions: read-out: PB (converted)
[9] = Half life in Wistar rat testis at 5 mg/kg, iv and po; type: ADME, organism-based; design: dose 5 mg/kg, route oral
[10] = Drug absorption in digestive tract of Wistar rat at 5 mg/kg, iv and po; type: ADME, organism-based; design: dose 5 mg/kg, route oral; conditions: in vivo, read-out: Drug uptake
[11] = Half life in Wistar rat at 5 mg/kg, iv and po; type: ADME, organism-based; design: dose 5 mg/kg, route oral; conditions: in vivo

Chain of Dual specificity calcium/calmodulin-dependent 3',5'-cyclic nucleotide phosphodiesterase 1A (P54750 whole entry): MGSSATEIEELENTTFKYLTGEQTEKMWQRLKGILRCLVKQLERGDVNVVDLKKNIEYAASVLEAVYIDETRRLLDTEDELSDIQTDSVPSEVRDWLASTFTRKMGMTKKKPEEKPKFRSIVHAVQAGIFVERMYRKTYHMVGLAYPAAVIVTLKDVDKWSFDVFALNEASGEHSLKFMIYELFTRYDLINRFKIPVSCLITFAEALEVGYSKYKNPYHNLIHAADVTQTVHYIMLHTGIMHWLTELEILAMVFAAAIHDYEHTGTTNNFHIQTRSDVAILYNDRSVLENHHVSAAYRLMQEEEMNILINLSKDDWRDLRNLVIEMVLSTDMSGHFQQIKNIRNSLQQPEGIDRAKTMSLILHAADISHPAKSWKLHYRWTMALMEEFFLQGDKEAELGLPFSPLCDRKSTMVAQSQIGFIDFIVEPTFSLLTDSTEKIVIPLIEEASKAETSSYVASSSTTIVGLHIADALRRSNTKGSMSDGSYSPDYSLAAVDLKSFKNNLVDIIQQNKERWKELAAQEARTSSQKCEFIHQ

SMILES | IC50 (Plasmodium falciparum) | inhibition (INH) [1] | other results
COc1ccc2cc1Oc1ccc(cc1)C[C@@H]1c3cc(c(OC)cc3CCN1C)Oc1c(OC)c(OC)cc3c1[C@@H](C2)N(C)CC3 [PHAEANTHINE] | 1.43 µg/mL (≈ 2.3 µM) | – | –
COc1cc2c3c4c1Oc1cc5c(cc1O4)[C@H](Cc1ccc(O)c(c1)Oc1ccc(cc1)C[C@@H]3N(C)CC2)N(C)CC5 [COCSULINE] | 15.6 µg/mL (≈ 27.7 µM) | – | –
FC(F)OC(F)(F)C(F)Cl (stereo unspecified) | – | – | inhibition (Homo sapiens): Dose-dependent effect
COc1c2cc3c(c1OC)CCN(C)[C@@H]3Cc1ccc(cc1)Oc1cc3c(c(OC)c1OC)CCN(C)[C@@H]3Cc1ccc(cc1)O2 [CYCLEANINE] | – | 36.2% | –
COc1ccc2cc1Oc1ccc(cc1)C[C@H]1c3cc(c(OC)cc3CCN1C)Oc1c(OC)c(OC)cc3c1[C@H](C2)N(C)CC3 [FANCHININ] | – | – | Ki [2]: 7.3 ×10⁻⁸ M
COc1cc2c3cc1Oc1c(OC)c(OC)cc4c1[C@@H](Cc1ccc(O)c(c1)Oc1ccc(cc1)C[C@@H]3N(C)CC2)N(C)CC4 [BERBAMINE] | – | 56.4% | IC50 [3]: 60 µM; IC50 [4]: 22 µM; Ki [2]: 1.9 ×10⁻⁷ M
COc1cc2c3cc1Oc1c(OC)c(OC)cc4c1[C@H](Cc1ccc(cc1)Oc1cc(ccc1O)C[C@H]3N(C)CC2)N(C)CC4 [AROMOLINE] | 0.67 µg/mL (≈ 1.1 µM) | 63.1% | –
COc1cc2c(cc1OC)[C@@H](Cc1ccc(Oc3cc(C[C@@H]4c5cc(OC)c(OC)cc5CCN4C)ccc3O)cc1)N(C)CC2 [DAURICINE] | – | 50.8% | LD50 [5]: 205 mg/kg
CCOCCCCOc1ccc2cc1Oc1ccc(cc1)C[C@H]1c3cc(c(OC)cc3CCN1C)Oc1c(OC)c(OC)cc3c1[C@@H](C2)N(C)CC3 | – | – | IC50 [3]: 0.35 µM; IC50 [4]: 0.35 µM
COc1ccc2cc1Oc1ccc(cc1)CC1NCCc3cc(O)c4c(c31)Oc1c(OC)cc3c(c1O4)[C@H](C2)N(C)CC3 (stereo partly specified) | 1.1 µg/mL (≈ 1.9 µM) | – | –
COc1cc2c3cc1Oc1c(O)c(OC)cc4c1[C@@H](Cc1ccc(O)c(c1)Oc1ccc(cc1)C[C@@H]3N(C)CC2)N(C)CC4 [OBAMEGINE] | 0.51 µg/mL (≈ 0.858 µM) | – | –
COc1cc2c3cc1Oc1c4c(cc5c1[C@H](Cc1ccc(cc1)Oc1cc(ccc1O)C[C@H]3N(C)CC2)N(C)CC5)OCO4 [CEPHARANOLINE] | – | 56% | –
COc1ccc(C[C@@H]2c3cc(Oc4cc(C[C@@H]5c6cc(O)c(OC)cc6CCN5C)ccc4O)c(OC)cc3CCN2C)cc1 [ISOLIENSININE] | – | 59.6% | –
COc1cc2c3cc1Oc1c(OC)c(OC)cc4c1C(=NCC4)Cc1ccc(cc1)Oc1cc(ccc1O)CC3N(C)CC2 (stereo unspecified) [HYPOEPISTEPHANINE] | – | 34.1% | –
COc1ccc2cc1Oc1ccc(cc1)C[C@H]1c3cc(c(OC)cc3CCN1C)Oc1c(O)c(OC)cc3c1[C@H](C2)N(C)CC3 [FANGCHINOLINE] | – | 82.4% | –
COc1ccc2cc1Oc1ccc(cc1)C[C@H]1c3c(cc(OC)c(O)c3Oc3cc4c(cc3OC)CCN(C)[C@@H]4C2)CCN1C [HOMOAROMOLINE] | – | 67% | –
COc1ccc2cc1Oc1ccc(cc1)C[C@H]1c3c(cc4c(c3Oc3cc5c(cc3OC)CCN(C)[C@@H]5C2)OCO4)CCN1C [CEPHARANTHINE] | – | – | inhibition at 5 µg/mL [6]: 34%; inhibition (INH) (Mus musculus): 78%; inhibition at 50 µg/mL [7]: 85%
COc1ccc2cc1Oc1ccc(cc1)C[C@H]1c3c(cc4c(c3Oc3cc5c(cc3OC)CCN(C)[C@@H]5C2)O[14CH2]O4)CCN1C | – | – | fraction unbound [8]: 0.26; half-life [9]: 36 days; Fa [10]: 70%; half-life [11]: 8 days
COc1ccc(C[C@@H]2c3cc(Oc4cc(C[C@@H]5c6cc(OC)c(OC)cc6CCN5C)ccc4O)c(OC)cc3CCN2C)cc1 [NEFERINE] | – | 63.6% | –
COc1cc2c3cc1Oc1c(OC)c(OC)cc4c1[C@@H](Cc1ccc(O)c(c1)Oc1ccc(cc1)C[C@H]3N(C)CC2)N(C)CC4 [PYCNAMINE] | 0.15 µg/mL (≈ 0.246 µM) | – | –
